The values below come from patent publication US10392383B2, “3-(1H-benzo[d]imidazol-2-yl)-1H-pyrazolo[4,3-b]pyridines and therapeutic uses thereof” (Samumed, LLC, priority 2015, dated 2019).

Molecules are shown by their SMILES.

What all share (format): cell-based
For one test, the system named is SW480 colon cancer cells. Briefly: Cell viability assay (CellTiter-Blue) in SW480 cells. To be noted: Homo sapiens, 96 h, four days, CellTiter-Blue, 10 μM to 0.0045 μM. The method in brief:
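Resazurin reduction (Ex 560/Em 590 nm, ~3 h reagent incubation) served as the viability read-out after SW480 cells were treated for four days at 37 °C. Doses ran from 10 μM down to 0.0045 μM in eight 1:3 steps. Curves fitted non-linearly for EC50, else % inhibition at 10 μM reported.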
(In general: Alamar Blue is a resazurin reagent that responds to reducing activity.)

The subject of test [1] is primary human fibroblasts derived from IPF patients (LL29 cells) treated with TGF-β1. Briefly: Inhibition of the fibrotic process: αSMA staining in TGF-β1-treated LL29 fibroblasts. To be noted: Fibroblast; for EC50: 96 h, LL29 fibroblasts treated with TGF-β1 (20 ng/mL), 4 days, Table 4; for inhibition at 10 µM: LL29 fibroblasts treated with TGF-β1, Table 4, read-out: percent inhibition at 10 μM (given in parentheses for EC50 >10 μM). The method in brief:
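EC50 from triplicate-well dose-response fits of % αSMA-positive cells, normalized to TGF-β1-stimulated DMSO controls, with SYTOX-positive dead cells excluded. LL29 IPF fibroblasts received compound at 10 μM–1.87 nM (0.1% DMSO) plus 20 ng/mL TGF-β1 for 4 days in 1% FBS medium; above 10 μM, % inhibition at 10 μM reported.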

The next test has as its system IL-6 (THP-1 cells). Briefly: IL-6 inhibition in LPS-stimulated THP-1 monocytes (HTRF). To be noted: Homo sapiens, IL-6 HTRF; for EC50: 500 ng/mL LPS, Table 6; for inhibition at 10 µM: LPS, Table 6, read-out: percent inhibition at 10 μM (given in parentheses for EC50 >10 μM). The method in brief: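 THP-1 cells in 1% FBS pre-incubated 2 h with compound (10-point 1:3 series from 10 μM, 0.1% DMSO), then stimulated with 500 ng/mL LPS for 22 h at 37 °C. IL-6 measured by HTRF 665/620 ratio, normalized to DMSO; EC50 by four-parameter fit, or % inhibition at 10 μM when EC50 >10 μM.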
For orientation: TR-FRET usually uses a lanthanide donor and a delayed reading to cut background.

By EC50 is commonly meant the concentration giving half of the maximal effect. Low readings indicate an effect from little substance, high ones a need for much substance. Usually inhibition stands for the relative decrease from the control value, in per cent.

For the compound `Cc1ccncc1-c1ccc2[nH]nc(-c3nc4c(-c5cc(F)cc(CNS(C)(=O)=O)c5)cccc4[nH]3)c2n1` [Compound 481, N-(3-Fluoro-5-(2-(5-(4-methylpyridin-3-yl)-1H-pyrazolo[4,3-b]pyridin-3-yl)-1H-benzo[d]imidazol-4-yl)benzyl)methanesulfonamide], the EC50 with SW480 colon cancer cells came to 5590 nM; in test [1], 2110 nM; in the test on IL-6 (THP-1 cells), 2120 nM.

On to `CCCC(=O)Nc1cncc(-c2ccc3[nH]nc(-c4nc5c(-c6cc(F)cc(CNS(C)(=O)=O)c6)cccc5[nH]4)c3n2)c1` [Compound 493, N-(5-(3-(4-(3-Fluoro-5-(methylsulfonamidomethyl)phenyl)-1H-benzo[d]imidazol-2-yl)-1H-pyrazolo[4,3-b]pyridin-5-yl)pyridin-3-yl)butyramide], for which the results for the EC50 (with SW480 colon cancer cells; in test [1]; with IL-6 (THP-1 cells)) were 3930 nM, 2620 nM and more than 10000 nM, respectively. Besides, the inhibition at 10 µM in the test on IL-6 (THP-1 cells) was 35.3%.

For the compound `CS(=O)(=O)NCc1cc(F)cc(-c2cccc3[nH]c(-c4n[nH]c5ccc(-c6cncc(CNCc7ccccc7)c6)nc45)nc23)c1` [Compound 500, N-(3-(2-(5-(5-((Benzylamino)methyl)pyridin-3-yl)-1H-pyrazolo[4,3-b]pyridin-3-yl)-1H-benzo[d]imidazol-4-yl)-5-fluorobenzyl)methanesulfonamide], the EC50 stood at 3100 nM in the test on SW480 colon cancer cells, 2210 nM in test [1] and 1340 nM in the test with IL-6 (THP-1 cells).

As for `CS(=O)(=O)NCc1cc(F)cc(-c2cccc3[nH]c(-c4n[nH]c5ccc(-c6cncnc6)nc45)nc23)c1` [Compound 503, N-(3-Fluoro-5-(2-(5-(pyrimidin-5-yl)-1H-pyrazolo[4,3-b]pyridin-3-yl)-1H-benzo[d]imidazol-4-yl)benzyl)methanesulfonamide], the EC50 in the test on SW480 colon cancer cells stood at 8140 nM; in test [1], 5000 nM; in the test on IL-6 (THP-1 cells), 3710 nM.

Turning to `Fc1cccc(-c2cccc3[nH]c(-c4n[nH]c5ccc(C6CCNCC6)nc45)nc23)c1` [Compound 505, 3-(4-(3-Fluorophenyl)-1H-benzo[d]imidazol-2-yl)-5-(piperidin-4-yl)-1H-pyrazolo[4,3-b]pyridine], the 50% effective concentration (EC50) was 1460 nM with SW480 colon cancer cells, 1700 nM in test [1] and 4920 nM in the test on IL-6 (THP-1 cells).

For the compound `Cn1cc(-c2ccc3[nH]nc(-c4nc5c(-c6cccc(F)c6)cccc5[nH]4)c3n2)cn1` [Compound 508, 3-(4-(3-Fluorophenyl)-1H-benzo[d]imidazol-2-yl)-5-(1-methyl-1H-pyrazol-4-yl)-1H-pyrazolo[4,3-b]pyridine], the EC50 in the test with SW480 colon cancer cells is 1120 nM; in test [1] it was 1110 nM; in the test with IL-6 (THP-1 cells), more than 10000 nM. Moreover, in the test with IL-6 (THP-1 cells), the inhibition at 10 µM turned out to be 0%.

Regarding `Cc1ncc(-c2ccc3[nH]nc(-c4nc5c(-c6cccc(F)c6)cccc5[nH]4)c3n2)n1C` [Compound 509, 5-(1,2-Dimethyl-1H-imidazol-5-yl)-3-(4-(3-fluorophenyl)-1H-benzo[d]imidazol-2-yl)-1H-pyrazolo[4,3-b]pyridine], the results for the EC50 (in the test on SW480 colon cancer cells; in test [1]; with IL-6 (THP-1 cells)) were 414 nM, 175 nM and 788 nM, respectively.

Turning to `NC1CN(c2cncc(-c3ccc4[nH]nc(-c5nc6c(-c7cccc(F)c7)cccc6[nH]5)c4n3)n2)C1` [Compound 510, 1-(6-(3-(4-(3-Fluorophenyl)-1H-benzo[d]imidazol-2-yl)-1H-pyrazolo[4,3-b]pyridin-5-yl)pyrazin-2-yl)azetidin-3-amine], the EC50 with SW480 colon cancer cells is 952 nM; in test [1], 4320 nM; with IL-6 (THP-1 cells) it was 7840 nM.

Turning to `Fc1cccc(-c2cccc3[nH]c(-c4n[nH]c5ccc(-c6cncc(OC7CCNCC7)c6)nc45)nc23)c1` [Compound 512, 3-(4-(3-Fluorophenyl)-1H-benzo[d]imidazol-2-yl)-5-(5-(piperidin-4-yloxy)pyridin-3-yl)-1H-pyrazolo[4,3-b]pyridine], the concentration for a half-maximal effect (EC50) with SW480 colon cancer cells is 2280 nM; in test [1], 1540 nM; with IL-6 (THP-1 cells) it was 1520 nM.

Regarding `Fc1cccc(-c2cccc3[nH]c(-c4n[nH]c5ccc(-c6cncc(OCCN7CCCC7)c6)nc45)nc23)c1` [Compound 514, 3-(4-(3-Fluorophenyl)-1H-benzo[d]imidazol-2-yl)-5-(5-(2-(pyrrolidin-1-yl)ethoxy)pyridin-3-yl)-1H-pyrazolo[4,3-b]pyridine], the figures for the EC50 (with SW480 colon cancer cells; in test [1]; with IL-6 (THP-1 cells)) were 1120 nM, 1060 nM and 727 nM, respectively.

Regarding `CN(C)CCOc1cncc(-c2ccc3[nH]nc(-c4nc5c(-c6cccc(F)c6)cccc5[nH]4)c3n2)c1` [Compound 515, 2-((5-(3-(4-(3-Fluorophenyl)-1H-benzo[d]imidazol-2-yl)-1H-pyrazolo[4,3-b]pyridin-5-yl)pyridin-3-yl)oxy)-N,N-dimethylethan-1-amine], the EC50 in the test on SW480 colon cancer cells turned out to be 1380 nM; in test [1], 2540 nM; in the test on IL-6 (THP-1 cells), 7380 nM.

As for `COc1cncc(-c2ccc3[nH]nc(-c4nc5c(-c6cccc(F)c6)cccc5[nH]4)c3n2)c1` [Compound 516, 3-(4-(3-Fluorophenyl)-1H-benzo[d]imidazol-2-yl)-5-(5-methoxypyridin-3-yl)-1H-pyrazolo[4,3-b]pyridine], the EC50 in the test with SW480 colon cancer cells is 1160 nM; in test [1] it was more than 10000 nM; with IL-6 (THP-1 cells) it was more than 10000 nM. In addition, the figures for the inhibition at 10 µM (in test [1]; in the test with IL-6 (THP-1 cells)) were 0% and 49.5%, respectively.

Regarding `Oc1cncc(-c2ccc3[nH]nc(-c4nc5c(-c6cccc(F)c6)cccc5[nH]4)c3n2)c1` [Compound 517, 5-(3-(4-(3-Fluorophenyl)-1H-benzo[d]imidazol-2-yl)-1H-pyrazolo[4,3-b]pyridin-5-yl)pyridin-3-ol], the EC50 with SW480 colon cancer cells was 4540 nM; in test [1], 1540 nM; with IL-6 (THP-1 cells), 9700 nM.

As to `c1cncc(-c2cccc3[nH]c(-c4n[nH]c5ccc(-c6cncc(OC7CCCCC7)c6)nc45)nc23)c1` [Compound 559, 5-(5-(Cyclohexyloxy)pyridin-3-yl)-3-(4-(pyridin-3-yl)-1H-benzo[d]imidazol-2-yl)-1H-pyrazolo[4,3-b]pyridine], the EC50 is 3310 nM with SW480 colon cancer cells, 2620 nM in test [1] and 2.8 nM with IL-6 (THP-1 cells).

In the case of `Oc1cncc(-c2ccc3[nH]nc(-c4nc5c(-c6cccnc6)cccc5[nH]4)c3n2)c1` [Compound 565, 5-(3-(4-(Pyridin-3-yl)-1H-benzo[d]imidazol-2-yl)-1H-pyrazolo[4,3-b]pyridin-5-yl)pyridin-3-ol], the EC50 in the test on SW480 colon cancer cells was 1140 nM; in test [1] it was 1730 nM; with IL-6 (THP-1 cells), 232 nM.

Take `c1cc(N2CCCCC2)c2nc(-c3n[nH]c4ccc(-c5cncc(OCCN6CCCC6)c5)nc34)[nH]c2c1` [Compound 610, 3-(4-(Piperidin-1-yl)-1H-benzo[d]imidazol-2-yl)-5-(5-(2-(pyrrolidin-1-yl)ethoxy)pyridin-3-yl)-1H-pyrazolo[4,3-b]pyridine]: the EC50 with SW480 colon cancer cells was found to be 2690 nM; in test [1], 1970 nM; in the test with IL-6 (THP-1 cells) it was 695 nM.

Turning to `COc1cncc(-c2ccc3[nH]nc(-c4nc5c(N6CCCCC6)cccc5[nH]4)c3n2)c1` [Compound 612, 5-(5-Methoxypyridin-3-yl)-3-(4-(piperidin-1-yl)-1H-benzo[d]imidazol-2-yl)-1H-pyrazolo[4,3-b]pyridine], the EC50 with SW480 colon cancer cells was 4050 nM; in test [1], more than 10000 nM; with IL-6 (THP-1 cells), more than 10000 nM. For the same compound, the inhibition at 10 µM in test [1] is 26.9%; with IL-6 (THP-1 cells) it was 34.2%.
